Test results: patent US12708791B2, “Management of dermal neurofibromatosis lesions” (Sun Pharmaceutical Industries, Inc., priority 2020, dated 2026)
“And” between values parts separate entries of the source, which are not always exact repeats. Equal entries are not always repeated.

Assays:
Assay type in all cases: in vivo, human
neurofibroma lesions [1] = system: neurofibroma lesions
Protocol: Nine adult subjects participated in part 2, four male and five female. Ages ranged from 39 to 69, with a median of 58. For each subject neurofibromalesions were selected for treatment with ALA (3-6 lesions) and vehicle (3-6 lesions) delivered with microneedling. Following an overnight (16-18 hrs.) incubation time, all treated neurofibromas were illuminated with red light at 633 nm and 105 mW/cm^2 (Omnilux Revive® LED illuminator, Photo Therapeutics, Montgomeryville, PA, USA). The dose escalation study included doses of 50, 100 or 200 J/cm^2. Each subject received one single treatment.
Study Design: This study followed a 3+3 Phase I trial design, subjects were treated starting at a dose level of 50 J/cm^2. Dose escalation was performed only after a minimum of three subjects had been evaluated at the current level. If dose-limiting toxicity (DLT) occurred in 1 of 3 subjects, 3 more subjects would be evaluated at that dose level. DLT was defined as pain during irradiation requiring cessation of the light treatment, or any serious cutaneous adverse events, such as erosions or blistering or crusting of the skin. If 0 of these 3 subjects experienced DLT, then the dose was escalated (only one DLT in six subjects). If DLT occurred in 1 of the additional 3 subjects, the […] tolerable dose (MTD) had been exceeded (two DLTs in six subjects) and 3 more subjects would be treated at the next lower dose (if only 3 subjects had been treated previously at that dose). […] The MTD is defined as that dose level immediately below the dose level at which 2 subjects of a cohort (three or six subjects) experience DLT.
(§1) (day 2), and 2 to 4 (day 14-28) weeks after light treatment, for evaluation of cutaneous adverse events. At day 2, tumors were biopsied using a punch technique and subjected to light microscopy exam, TUNEL assay (DeadEnd™ Colorimetric TUNEL System, Promega, Madison, WI), and DAPI (4′,6-diamidino-2-phenylindole) staining (ab228549, Abcam, Cambridge, MA). Additional follow-up visits for measurement of lesions were made at periods of 3 months up to one year. See FIG. 1 for a schematic of the study design. The primary outcome for this clinical study was MTD, as measured in the dose escalation using the DLT as defined above. A secondary outcome measured efficacy defined by change in lesion size. The area of the lesion was estimated at baseline and during follow-up visits by measuring the long and short axis of the lesion. Average growth rates were calculated and comparisons made between ALA-treated and placebo lesions within the same subject. The null hypothesis was that there would be no difference in the growth rates of ALA-treated lesions when paired with same-subject placebo lesions. The alternative hypothesis was there would be a difference in the ALA and placebo lesion growth rates.

neurofibromas [2] = experiment: Light microscopy exam (hematoxylin & eosin) of tumors biopsied at day 2; settings: ALA-treated tumors, day 2 after PDT
Text: as §1

neurofibromas [3] = experiment: TUNEL assay for apoptotic cell death in tumors biopsied at day 2; settings: all TUNEL evaluated tumor samples, five subjects; p=0.002 vs vehicle
Text: as §1

[4] = system: superficial dermal neurofibromas; experiment: Photosensitizer uptake and conversion: PpIX fluorescence in excised tumors by confocal microscopy
Protocol: Four adult subjects were enrolled (2 males, 2 females) in part 1. Three tumor groups for each subject consisted of untreated negative controls, tumors treated with drug vehicle only, and ALA (Levulan® Kerastick® Topical Solution, Sun Pharma, Wilmington, MA, USA) treated tumors. Treated tumors were incubated with ALA or vehicle three hours (2 subjects) or overnight (2 subjects), then excised and subjected to fluorescence microscopy studies to measure mean fluorescence indicating PpIX conversion in tumors. Four adult subjects (2 males, 2 females) participated in part 1. Ages ranged from 39 to 67 yrs.
Photosensitizer Uptake: Treated tumors were incubated with ALA or vehicle three hours (2 subjects) or overnight (2 subjects), then excised and subjected to fluorescence microscopy studies to measure mean fluorescence indicating PpIX conversion in tumors. Importantly, ALA delivery for the subjects undergoing overnight incubation was assisted using microneedling (Dermapen®, Salt Lake City, Utah) of the tumors. […] The primary outcome measure was the ratio of mean fluorescence intensity in tumors compared to adjacent normal tissue, as determined by confocal microscopy. PpIX signals were detected with excitation at 405 nm and emission with a 600 nm long pass filter.

neurofibroma lesions [5] = experiment: Lesion size and growth rate after PDT treatment
Text: as §1

NCC(=O)CCC(=O)O [ALA, 5-aminolevulinic acid]
Duration of post inflammatory hyperpigmentation (neurofibroma lesions [1]; ALA-PDT treated NF lesions): up to 3 months
Time by which edema and redness subsided (neurofibroma lesions [1]; ALA-PDT treated NF lesions): ≤ 2 days
Blister formation, erosion or crusting (neurofibroma lesions [1]; human, in vivo): no blister formation, erosion or crusting
Erythema and edema around lesions (neurofibroma lesions [1]; human, in vivo): marked erythema and edema
MTD (light dose) (neurofibroma lesions [1]; human, in vivo): 100 J/cm^2
Pain and discomfort induced by red light treatment (neurofibroma lesions [1]; human, in vivo): marked pain and discomfort
Subjects with DLT (pain requiring cessation of the light treatment) (neurofibroma lesions [1]; human, in vivo): One subject
Duration of erythema and edema (neurofibroma lesions [1]; red light 105 mW/cm^2, 50 or 100 J/cm^2): at least 48 hrs.
Infiltrate on light microscopy (neurofibromas [2]): mixed infiltrate consisting of lymphocytes, neutrophils, and rare eosinophils
Average number of apoptotic cells per visual field (neurofibromas [3]): 42.5±19.9
Fluorescence compared to adjacent normal tissue ([4]; microneedled, overnight incubation): significant fluorescence
Fluorescence in the apparent tumor zones ([4]; topical ALA, incubated 3 hrs., excised tumors from two subjects): no fluorescence
Tumor size change (neurofibroma lesions [5]; measured at 2, 4 and 12 weeks after treatment, five subjects): did not show significant change
Growth rate ALA (neurofibroma lesions [5]; post PDT treatment, individual subjects): −0.073 (0.063) mm^2/day and 0.028 (0.040) mm^2/day and 0.097 (0.103) mm^2/day and 0.375 (00157) mm^2/day and −0.024 (0.030) mm^2/day
Difference in growth rates (ALA vs placebo) (neurofibroma lesions [5]; post PDT treatment, individual subjects, same-subject placebo lesions): 0.034 mm^2/day and −0.239 mm^2/day and 0.097 mm^2/day and −0.440 mm^2/day and −0.110 mm^2/day
